Drawing on ChEMBL document CHEMBL1909046, “DrugMatrix in vitro pharmacology data”, this text covers IC50 and Ki for six compounds.

Prostaglandin G/H synthase 1, sequence (P23219 whole entry): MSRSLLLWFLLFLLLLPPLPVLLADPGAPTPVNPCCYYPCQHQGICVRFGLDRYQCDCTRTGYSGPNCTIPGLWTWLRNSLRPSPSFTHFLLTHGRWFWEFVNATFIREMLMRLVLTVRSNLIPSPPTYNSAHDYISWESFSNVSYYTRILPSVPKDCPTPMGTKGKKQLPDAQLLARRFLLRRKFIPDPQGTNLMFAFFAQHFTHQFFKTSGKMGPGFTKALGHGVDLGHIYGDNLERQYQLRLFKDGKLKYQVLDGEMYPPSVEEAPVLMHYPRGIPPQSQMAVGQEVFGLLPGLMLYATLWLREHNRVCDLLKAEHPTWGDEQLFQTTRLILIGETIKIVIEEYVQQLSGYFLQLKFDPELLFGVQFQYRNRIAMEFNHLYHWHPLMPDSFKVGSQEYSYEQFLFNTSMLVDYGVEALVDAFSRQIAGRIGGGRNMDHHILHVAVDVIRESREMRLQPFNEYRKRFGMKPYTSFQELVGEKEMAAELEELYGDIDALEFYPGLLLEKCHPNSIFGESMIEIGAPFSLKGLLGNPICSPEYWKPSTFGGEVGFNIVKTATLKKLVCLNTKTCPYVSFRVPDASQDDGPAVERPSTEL

The first assay has as its target T1, Muscarinic acetylcholine receptor M4 (Homo sapiens, UniProt P08173). Also: in other assays of this panel Not Active means under 50% inhibition at 10 µM.
T1 sequence (P08173 whole entry): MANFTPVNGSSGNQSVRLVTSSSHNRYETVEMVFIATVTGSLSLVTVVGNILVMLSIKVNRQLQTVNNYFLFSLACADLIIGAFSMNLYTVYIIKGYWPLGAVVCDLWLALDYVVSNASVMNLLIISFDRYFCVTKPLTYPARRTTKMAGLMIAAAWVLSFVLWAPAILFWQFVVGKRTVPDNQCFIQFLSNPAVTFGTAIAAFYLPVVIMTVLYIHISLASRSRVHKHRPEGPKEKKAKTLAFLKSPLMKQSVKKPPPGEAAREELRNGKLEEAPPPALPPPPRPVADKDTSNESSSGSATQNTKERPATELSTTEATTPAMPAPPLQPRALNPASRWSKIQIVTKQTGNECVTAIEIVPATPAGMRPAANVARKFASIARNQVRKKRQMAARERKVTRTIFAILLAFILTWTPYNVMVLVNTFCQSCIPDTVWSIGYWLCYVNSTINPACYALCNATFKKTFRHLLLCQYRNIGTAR
Assay: not given
Type of assay: cell membranes, CHO-K1, Membrane. To be noted: cho-k1.
On to `CCC(=O)O[C@]1(C(=O)CCl)[C@@H](C)C[C@H]2[C@@H]3CCC4=CC(=O)C=C[C@]4(C)[C@@]3(F)[C@@H](O)C[C@@]21C` [CLOBETASOL PROPIONATE], for which the IC50 entry is listed as “Not Active”.
The same measure, in the same setting: in the case of `O=C1CN=C(c2ccccc2Cl)c2cc([N+](=O)[O-])ccc2N1` [CLONAZEPAM] it was “Not Active”; in that of `Nc1ccn([C@@H]2O[C@H](CO)[C@@H](O)[C@@H]2O)c(=O)n1` [CYTARABINE], “Not Active”; in that of `C[C@@H]1C[C@H]2[C@@H]3CCC4=CC(=O)C=C[C@]4(C)[C@@]3(F)[C@@H](O)C[C@]2(C)[C@H]1C(=O)CO` [DESOXIMETASONE], “Not Active”.
Same read-out and setting: under `C[C@@H]1C[C@H]2[C@@H]3CCC4=CC(=O)C=C[C@]4(C)[C@@]3(F)[C@@H](O)C[C@]2(C)[C@@]1(O)C(=O)CO` [DEXAMETHASONE] stands “Not Active”.

The assay is the same for the next values; noted with them: read-out: IC50.
Take `CN(C)CC[C@@H](c1ccc(Cl)cc1)c1ccccn1` [DEXCHLORPHENIRAMINE]: the half-inhibitory concentration (IC50) was 1.98 µM.

Still in this assay, the particulars now being: read-out: Ki.
As for `CN(C)CC[C@@H](c1ccc(Cl)cc1)c1ccccn1` [DEXCHLORPHENIRAMINE], the Ki was 0.276 µM.

The next assay has as its target Prostaglandin G/H synthase 1 (Homo sapiens, UniProt P23219). The assay can be described thus: biochemical. Type of assay: tissue-based, Platelet. The conditions noted are these: platelet.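 Also: inhibition of COX-1 enzyme activity, with arachidonic acid supplied as substrate; in other assays of this panel Not Active means under 50% inhibition at 10 µM.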
For `CCC(=O)O[C@]1(C(=O)CCl)[C@@H](C)C[C@H]2[C@@H]3CCC4=CC(=O)C=C[C@]4(C)[C@@]3(F)[C@@H](O)C[C@@]21C` [CLOBETASOL PROPIONATE], the IC50 entry was “Not Active”.
Still for that read-out and setting: under `O=C1CN=C(c2ccccc2Cl)c2cc([N+](=O)[O-])ccc2N1` [CLONAZEPAM] stands “Not Active”; under `Nc1ccn([C@@H]2O[C@H](CO)[C@@H](O)[C@@H]2O)c(=O)n1` [CYTARABINE], “Not Active”.
Take `C[C@@H]1C[C@H]2[C@@H]3CCC4=CC(=O)C=C[C@]4(C)[C@@]3(F)[C@@H](O)C[C@]2(C)[C@H]1C(=O)CO` [DESOXIMETASONE]: the IC50 entry is listed as “Not Active”.
Take `C[C@@H]1C[C@H]2[C@@H]3CCC4=CC(=O)C=C[C@]4(C)[C@@]3(F)[C@@H](O)C[C@]2(C)[C@@]1(O)C(=O)CO` [DEXAMETHASONE]: the IC50 result is recorded as “Not Active”.
As to `CN(C)CC[C@@H](c1ccc(Cl)cc1)c1ccccn1` [DEXCHLORPHENIRAMINE], the IC50 result is given as “Not Active”.

A further assay deals with Glycine receptor (Rattus norvegicus, UniProt P22771+P24524+P07727+P20781).
Assay: not given
Type of assay: cell membranes, Wistar, Spinal cord, Membrane.
Conditions: not given
For the compound `CCC(=O)O[C@]1(C(=O)CCl)[C@@H](C)C[C@H]2[C@@H]3CCC4=CC(=O)C=C[C@]4(C)[C@@]3(F)[C@@H](O)C[C@@]21C` [CLOBETASOL PROPIONATE], the IC50 result is “Not Active”.
On the same count and under the same terms, in the case of `O=C1CN=C(c2ccccc2Cl)c2cc([N+](=O)[O-])ccc2N1` [CLONAZEPAM] it was “Not Active”; in that of `Nc1ccn([C@@H]2O[C@H](CO)[C@@H](O)[C@@H]2O)c(=O)n1` [CYTARABINE], “Not Active”; in that of `C[C@@H]1C[C@H]2[C@@H]3CCC4=CC(=O)C=C[C@]4(C)[C@@]3(F)[C@@H](O)C[C@]2(C)[C@H]1C(=O)CO` [DESOXIMETASONE], “Not Active”.
Same read-out and setting: under `C[C@@H]1C[C@H]2[C@@H]3CCC4=CC(=O)C=C[C@]4(C)[C@@]3(F)[C@@H](O)C[C@]2(C)[C@@]1(O)C(=O)CO` [DEXAMETHASONE] stands “Not Active”; under `CN(C)CC[C@@H](c1ccc(Cl)cc1)c1ccccn1` [DEXCHLORPHENIRAMINE], “Not Active”.

For the next assay, the target named is Matrix metalloproteinase-9 (Homo sapiens, UniProt P14780). Kind of assay: biochemical. Type of assay: cell-based.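 Also: inhibition of isolated MMP-9 enzyme activity toward a synthetic peptide substrate, from the DrugMatrix protease screening panel; in other assays of this panel Not Active means under 50% inhibition at 10 µM.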
Matrix metalloproteinase-9, sequence (P14780 whole entry): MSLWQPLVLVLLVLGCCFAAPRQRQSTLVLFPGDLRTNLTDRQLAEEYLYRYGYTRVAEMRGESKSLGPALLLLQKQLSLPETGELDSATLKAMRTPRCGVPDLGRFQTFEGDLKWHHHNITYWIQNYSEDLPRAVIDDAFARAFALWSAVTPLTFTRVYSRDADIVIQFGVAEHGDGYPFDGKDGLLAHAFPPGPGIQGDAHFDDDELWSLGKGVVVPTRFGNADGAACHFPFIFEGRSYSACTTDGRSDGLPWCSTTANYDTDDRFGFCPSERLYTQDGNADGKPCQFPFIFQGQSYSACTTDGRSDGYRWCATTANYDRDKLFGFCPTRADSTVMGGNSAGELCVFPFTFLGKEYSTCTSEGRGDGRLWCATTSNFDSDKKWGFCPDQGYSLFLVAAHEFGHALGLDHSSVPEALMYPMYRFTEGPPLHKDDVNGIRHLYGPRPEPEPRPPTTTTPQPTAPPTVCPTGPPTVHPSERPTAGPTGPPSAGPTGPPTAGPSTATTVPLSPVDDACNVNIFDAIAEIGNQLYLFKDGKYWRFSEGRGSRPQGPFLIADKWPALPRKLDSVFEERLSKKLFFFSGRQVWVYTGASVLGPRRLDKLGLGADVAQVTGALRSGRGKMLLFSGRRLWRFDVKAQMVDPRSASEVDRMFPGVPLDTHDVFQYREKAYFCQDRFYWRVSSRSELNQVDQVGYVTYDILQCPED
Conditions: not given
Regarding `CCC(=O)O[C@]1(C(=O)CCl)[C@@H](C)C[C@H]2[C@@H]3CCC4=CC(=O)C=C[C@]4(C)[C@@]3(F)[C@@H](O)C[C@@]21C` [CLOBETASOL PROPIONATE], the IC50 entry is “Not Active”.
On the same count and under the same terms, under `O=C1CN=C(c2ccccc2Cl)c2cc([N+](=O)[O-])ccc2N1` [CLONAZEPAM] stands “Not Active”; under `Nc1ccn([C@@H]2O[C@H](CO)[C@@H](O)[C@@H]2O)c(=O)n1` [CYTARABINE], “Not Active”.
Still for that read-out and setting: in the case of `C[C@@H]1C[C@H]2[C@@H]3CCC4=CC(=O)C=C[C@]4(C)[C@@]3(F)[C@@H](O)C[C@]2(C)[C@H]1C(=O)CO` [DESOXIMETASONE] it was “Not Active”; in that of `C[C@@H]1C[C@H]2[C@@H]3CCC4=CC(=O)C=C[C@]4(C)[C@@]3(F)[C@@H](O)C[C@]2(C)[C@@]1(O)C(=O)CO` [DEXAMETHASONE], “Not Active”; in that of `CN(C)CC[C@@H](c1ccc(Cl)cc1)c1ccccn1` [DEXCHLORPHENIRAMINE], “Not Active”.

The next assay has as its target T2, Alpha-1D adrenergic receptor (Homo sapiens, UniProt P25100). Also: in other assays of this panel Not Active means under 50% inhibition at 10 µM.
T2 sequence (P25100 whole entry): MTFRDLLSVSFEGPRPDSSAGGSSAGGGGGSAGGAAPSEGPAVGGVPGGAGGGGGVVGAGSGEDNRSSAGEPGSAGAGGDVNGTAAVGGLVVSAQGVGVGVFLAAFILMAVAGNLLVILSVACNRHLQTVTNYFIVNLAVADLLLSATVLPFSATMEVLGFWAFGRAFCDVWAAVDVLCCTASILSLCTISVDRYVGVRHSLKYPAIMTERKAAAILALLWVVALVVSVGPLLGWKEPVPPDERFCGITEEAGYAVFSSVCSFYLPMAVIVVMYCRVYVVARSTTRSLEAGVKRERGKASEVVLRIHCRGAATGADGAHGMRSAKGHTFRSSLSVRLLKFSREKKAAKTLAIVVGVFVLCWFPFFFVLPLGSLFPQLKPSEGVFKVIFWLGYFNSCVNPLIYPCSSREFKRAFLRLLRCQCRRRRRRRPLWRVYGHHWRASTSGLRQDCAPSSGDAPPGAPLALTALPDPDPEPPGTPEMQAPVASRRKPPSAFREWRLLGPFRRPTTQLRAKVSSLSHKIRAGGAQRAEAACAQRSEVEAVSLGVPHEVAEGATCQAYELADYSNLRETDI
Assay: not given
Type of assay: cell membranes, HEK293, Membrane. The conditions noted are these: hek293.
On to `CCC(=O)O[C@]1(C(=O)CCl)[C@@H](C)C[C@H]2[C@@H]3CCC4=CC(=O)C=C[C@]4(C)[C@@]3(F)[C@@H](O)C[C@@]21C` [CLOBETASOL PROPIONATE], for which the IC50 result is on record as “Not Active”.
Take `O=C1CN=C(c2ccccc2Cl)c2cc([N+](=O)[O-])ccc2N1` [CLONAZEPAM]: the IC50 result was “Not Active”.
On the same count and under the same terms, in the case of `Nc1ccn([C@@H]2O[C@H](CO)[C@@H](O)[C@@H]2O)c(=O)n1` [CYTARABINE] it was “Not Active”.
Same read-out and setting: in the case of `C[C@@H]1C[C@H]2[C@@H]3CCC4=CC(=O)C=C[C@]4(C)[C@@]3(F)[C@@H](O)C[C@]2(C)[C@H]1C(=O)CO` [DESOXIMETASONE] it was “Not Active”; in that of `C[C@@H]1C[C@H]2[C@@H]3CCC4=CC(=O)C=C[C@]4(C)[C@@]3(F)[C@@H](O)C[C@]2(C)[C@@]1(O)C(=O)CO` [DEXAMETHASONE], “Not Active”.

The same assay, now with this note: read-out: IC50.
`CN(C)CC[C@@H](c1ccc(Cl)cc1)c1ccccn1` [DEXCHLORPHENIRAMINE]: the IC50 worked out at 33.7 µM.

Staying with this assay, now noted: read-out: Ki.
Take `CN(C)CC[C@@H](c1ccc(Cl)cc1)c1ccccn1` [DEXCHLORPHENIRAMINE]: the inhibitory constant (Ki) is 16.6 µM.

System in the next assay: not listed separately
The assay can be described thus: DRUGMATRIX: GABAA, Muscimol, Central radioligand binding (ligand: [3H] Muscimol). Type of assay: cell membranes, Rattus norvegicus, Wistar, Brain, Membrane. The conditions noted are these: Not Active = under 50% inhibition at 10 µM.
In the case of `CCC(=O)O[C@]1(C(=O)CCl)[C@@H](C)C[C@H]2[C@@H]3CCC4=CC(=O)C=C[C@]4(C)[C@@]3(F)[C@@H](O)C[C@@]21C` [CLOBETASOL PROPIONATE], the concentration for half-maximal inhibition (IC50) result is listed as “Not Active” and the Ki result was “Not Active”.
In the case of `O=C1CN=C(c2ccccc2Cl)c2cc([N+](=O)[O-])ccc2N1` [CLONAZEPAM], the IC50 entry was “Not Active” and the Ki result is given as “Not Active”.
For the compound `Nc1ccn([C@@H]2O[C@H](CO)[C@@H](O)[C@@H]2O)c(=O)n1` [CYTARABINE], the IC50 entry is given as “Not Active” and the Ki result was “Not Active”.
Consider `C[C@@H]1C[C@H]2[C@@H]3CCC4=CC(=O)C=C[C@]4(C)[C@@]3(F)[C@@H](O)C[C@]2(C)[C@H]1C(=O)CO` [DESOXIMETASONE], for which the IC50 entry was “Not Active” and the Ki result was “Not Active”.
`C[C@@H]1C[C@H]2[C@@H]3CCC4=CC(=O)C=C[C@]4(C)[C@@]3(F)[C@@H](O)C[C@]2(C)[C@@]1(O)C(=O)CO` [DEXAMETHASONE]: the IC50 entry is reported as “Not Active” and the Ki result is “Not Active”.
Take `CN(C)CC[C@@H](c1ccc(Cl)cc1)c1ccccn1` [DEXCHLORPHENIRAMINE]: the IC50 result is on record as “Not Active” and the Ki entry is “Not Active”.

As usually defined, the IC50 is the concentration at which inhibition is half-maximal. The Ki is a dissociation constant, usually derived from enzyme kinetics or from competition with a known ligand.
